According to patent US20060069132A1, “Azolecarboxamide herbicides” (priority 2004, published 2006):

What was measured:
Assay in all cases: Test C postemergence herbicide test
chickweed = format: in vivo, Stellaria media; conditions: for Chickweed plant response rating: 500 g ai/ha
Protocol: At the same time, plants selected from these crop and weed species and also winter barley (Hordeum vulgare L.), blackgrass (Alopecurus myosuroides Huds.), canarygrass (Phalaris minor Retz.), chickweed (Stellaria media (L.) Vill.), downy bromegrass (Bromus tectorum L.), green foxtail (Setaria viridis (L.) Beauv.), Italian ryegrass (Lolium multiflorum Lam.), wheat (Triticum aestivum L.), wild oat (Avenafatua L.) and windgrass (Apera spica-venti (L.) Beauv.) were treated with postemergence applications of some of the test chemicals formulated in the same manner. Plants ranged in height from 2 to 18 cm (1- to 4-leaf stage) for postemergence treatments. Plant species in the flooded paddy test consisted of rice (Oryza sativa), smallflower umbrella sedge (Cyperus difformis L.), ducksalad (Heteranthera limosa (Sw.) Willd.) and barnyardgrass (Echinochloa crus-galli (L.) Beauv.) grown to the 2-leaf stage for testing. Treated plants and controls were maintained in a greenhouse for 12 to 14 days, after which time all species were compared to controls and visually evaluated. Plant response ratings, summarized in Table C, are based on a scale of 0 to 100 where 0 is no effect and 100 is complete control. A dash (-) response means no test result.

wheat = format: in vivo, Triticum aestivum
Summary of the method: (§1)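 Plants were grown to the 1- to 4-leaf stage (2–18 cm) and then treated postemergence, or grown to the 2-leaf stage for the flooded paddy test. They were held in a greenhouse for 12 to 14 days and then scored by eye against controls, where 0 is no effect and 100 is complete control.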

blackgrass = format: in vivo, Alopecurus myosuroides
Summary of the method: as §1

downy bromegrass = format: in vivo, Bromus tectorum
Summary of the method: as §1

[1] = Postemergence, 125 g ai/ha, scale 0 to 100, 0 no effect, 100 complete control
[2] = Postemergence, 250 g ai/ha, scale 0 to 100, 0 no effect, 100 complete control
[3] = postemergence, 62 g ai/ha, scale 0 to 100
[4] = postemergence, 31 g ai/ha, scale 0 to 100
[5] = postemergence, 125 g ai/ha, scale 0 to 100
[6] = Postemergence, 500 g ai/ha, scale 0 to 100
[7] = Postemergence, 500 g ai/ha, scale 0 to 100, 0 no effect, 100 complete control

SMILES | Plant response rating, Chickweed (chickweed; [2]) | Plant response rating, Chickweed (chickweed; [3]) | Chickweed plant response rating (chickweed; Postemergence, scale 0 to 100) | Plant response rating, Wheat (wheat; [2]) | Plant response rating, Wheat (wheat; [5]) | Plant response rating, Wheat (wheat; [3]) | Plant response rating, Blackgrass (blackgrass; [5]) | Plant response rating, Blackgrass (blackgrass; [3]) | Plant response rating, Bromegrass, Downy (downy bromegrass; [2]) | Plant response rating, Bromegrass, Downy (downy bromegrass; [5]) | Plant response rating, Bromegrass, Downy (downy bromegrass; [3]) | Plant response rating, Chickweed (chickweed; [5]) | Plant response rating, Blackgrass (blackgrass; [2]) | further results
CCNC(=O)c1cccc(NC(=O)c2cc(C(C)(C)C)nn2CC(F)(F)F)c1 [Compound 31] | 100 | 90 |  |  |  |  |  |  |  |  |  |  |  | Plant response rating, Chickweed (chickweed; [1]): 90
C=Cn1nc(C(C)(C)C)cc1C(=O)Nc1cccc(C(=O)N(CC)CC)c1 [Compound 34] | 60 |  | 100 |  |  |  |  |  |  |  |  |  |  | Plant response rating, Chickweed (chickweed; [1]): 50
CCNC(=O)c1cccc(NC(=O)c2cc(C(C)(C)C)nn2CCF)c1 [Compound 35] |  | 80 |  |  |  |  |  |  |  |  |  |  |  | Plant response rating, Chickweed (chickweed; [1]): 90; Plant response rating, Chickweed (chickweed; postemergence, 16 g ai/ha, scale 0 to 100): 70; Plant response rating, Chickweed (chickweed; [4]): 70
CCn1nc(C(C)(C)C)cc1C(=O)Nc1cccc(C(=O)NC2CC2)c1 [Compound 44] | 90 | 90 |  |  |  |  |  |  |  |  |  |  |  | Plant response rating, Chickweed (chickweed; [1]): 90
CCn1nc(C(C)(C)C)cc1C(=O)Nc1cccc(C(=O)NCC2CC2)c1 [Compound 62] |  |  |  | 10 | 10 | 10 | 40 | 40 | 30 | 20 | 20 |  |  | Blackgrass plant response rating (blackgrass; Postemergence, 250 g ai/ha, scale 0 to 100): 40; Plant response rating, Blackgrass (blackgrass; [4]): 20; Plant response rating, Bromegrass, Downy (downy bromegrass; [4]): 10
CCOC(=O)c1cccc(NC(=O)c2cc(C(C)(C)C)nn2CC)c1 [Compound 80, ethyl 3-[[[3-(1,1-dimethylethyl)-1-ethyl-1H-pyrazol-5-yl]carbonyl]-amino]benzoate] | 100 | 100 |  |  |  |  |  |  |  |  |  | 100 |  | Plant response rating, Chickweed (chickweed; [4]): 90
CCn1nc(C(C)(C)C)cc1C(=O)Nc1cccc(C(=O)OCCF)c1 [Compound 82, 2-fluoroethyl 3-[[[3-(1,1-dimethylethyl)-1-ethyl-1H-pyrazol-5-yl]-carbonyl]amino]benzoate] | 100 | 70 | 100 |  |  |  |  |  |  |  |  | 95 |  | 
CCCCOc1cccc(NC(=O)c2cc(C(C)(C)C)nn2CC)c1 [Compound 137] |  |  |  | 30 | 30 | 30 | 40 | 40 | 20 | 20 | 10 |  | 40 | Wheat plant response rating (wheat; [6]): 40; Blackgrass plant response rating (blackgrass; [6]): 60; Bromegrass, Downy plant response rating (downy bromegrass; [6]): 40
C#CCNC(=O)c1cccc(NC(=O)c2cc(C(C)(C)C)nn2CC)n1 [Compound 147] | 90 | 5 | 100 |  |  |  |  |  |  |  |  | 30 |  | 
CCc1nc(C(C)(C)C)sc1C(=O)Nc1cccc(C(=O)NCC2CC2)c1 [Compound 212] | 80 | 60 | 100 |  |  |  |  |  |  |  |  | 80 |  | 
CCOC(=O)c1cccc(NC(=O)c2cc(C3(C)CC3)nn2CC)c1 [Compound 295] | 100 | 100 |  | 45 | 45 | 45 | 65 | 45 | 45 | 45 | 45 | 100 | 65 | Plant response rating, Blackgrass (blackgrass; [4]): 45; Plant response rating, Bromegrass, Downy (downy bromegrass; [4]): 45; Plant response rating, Chickweed (chickweed; [4]): 85
CCn1nc(C2(C)CC2)cc1C(=O)Nc1cc(C(=O)N2CC=CC2)ccc1F [Compound 301] |  |  |  | 55 | 45 | 40 | 75 | 55 | 40 | 40 | 40 |  | 90 | Wheat plant response rating (wheat; [6]): 40; Blackgrass plant response rating (blackgrass; [6]): 45; Bromegrass, Downy plant response rating (downy bromegrass; [6]): 40
C=CCNC(=O)c1cccc(NC(=O)c2cc(C(C)(C)C)nn2C)n1 [Compound 318] | 10 | 0 | 80 |  |  |  |  |  |  |  |  | 0 |  | 
CCn1nc(C(C)(C)C)cc1C(=O)Nc1cc(OC(F)(F)F)ccc1F [Compound 338] |  |  |  | 35 | 25 | 25 | 45 | 40 | 40 | 35 | 30 |  | 50 | Plant response rating, Wheat (wheat; [7]): 45; Blackgrass plant response rating (blackgrass; [6]): 65; Plant response rating, Bromegrass, Downy (downy bromegrass; [7]): 45
CCn1nc(C(C)(C)C)cc1C(=O)Nc1cccc(OS(=O)(=O)CC)c1 [Compound 408] |  |  |  |  | 30 | 30 | 50 | 40 | 55 | 45 | 40 |  | 65 | Plant response rating, Wheat (wheat; [7]): 40; Blackgrass plant response rating (blackgrass; [6]): 70; Plant response rating, Bromegrass, Downy (downy bromegrass; [7]): 55
